Data as given in patent publication US4841044A, “Cephalosporin derivatives” (Taisho Pharmaceutical Co., Ltd., priority 1985, dated 1989).
≈ marks a conversion by molar mass, not a printed value. Where two headings read alike, the source gives them in different places.

How the values were obtained:
[1] = test system: Proteus mirabilis IFO 3849; assay: Antibacterial activity (MIC), agar plate dilution method; type: cell-based
Description: (§1) The antibacterial activity of the compounds of the present invention against various bacteria (inoculum size: 10^6 cells/ml) were tested by the agar plate dilution method, and the results are shown in the following Table 1.

[2] = test system: Klebsiella pneumoniae IFO 3317; assay: as above; type: cell-based
Description: as §1

[3] = test system: Escherichia coli NIHJ JC-2; assay: as above; type: cell-based
Description: as §1

[4] = test system: Serratia marcescens IID 618; assay: as above; type: cell-based
Description: as §1

in vivo = details: rat, blood, oral, 50 mg/kg, male wister rats (7 weeks old), bioassay (Escherichia coli SC507); for concentration at 4 h: Four Hours; for concentration at 1 h: One Hour; for concentration at 2 h: Two Hours
Description: Male wister rats (7 weeks old) were administered orally with the test compound, and the change of the concentration of the compound in blood was measured.
Dosage of the test compound:
Quantitative method: Bioassay
(test bacterium: Escherichia coli SC507)

| MIC ([1]; Proteus mirabilis IFO 3849, inoculum size: 10^6 cells/ml, agar plate dilution) | MIC ([2]; Klebsiella pneumoniae IFO 3317, inoculum size: 10^6 cells/ml, agar plate dilution) | MIC ([3]; Escherichia coli NIHJ JC-2, inoculum size: 10^6 cells/ml, agar plate dilution) | MIC ([4]; Serratia marcescens IID 618, inoculum size: 10^6 cells/ml, agar plate dilution) | MIC ([1]; IFO3849, Proteus mirabilis IFO 3849, inoculum size: 10^6 cells/ml, agar plate dilution, read-out: MIC) | MIC ([2]; IFO3317, Klebsiella pneumoniae IFO 3317, inoculum size: 10^6 cells/ml, agar plate dilution, read-out: MIC) | MIC ([3]; NIHJJC2, Escherichia coli NIHJ JC-2, inoculum size: 10^6 cells/ml, agar plate dilution, read-out: MIC) | MIC ([4]; IID618, Serratia marcescens IID 618, inoculum size: 10^6 cells/ml, agar plate dilution, read-out: MIC) | SMILES | MIC ([1]; Proteus mirabilis, IFO3849) | MIC ([2]; Klebsiella pneumoniae, IFO3317) | MIC ([3]; Escherichia coli, NIHJJC2) | MIC ([4]; Serratia marcescens, IID618) | concentration at 4 h (in vivo) | concentration at 1 h (in vivo) | concentration at 2 h (in vivo) |
| --- | --- | --- | --- | --- | --- | --- | --- | --- | --- | --- | --- | --- | --- | --- | --- |
| – | – | – | – | – | – | – | – | CCNC(=O)/C=C\SC1=C(C(=O)[O-])N2C(=O)[C@@H](NC(=O)/C(=N\OCC(=O)[O-])c3csc(N)n3)[C@H]2SC1.[Na+].[Na+] | 0.025 µg/mL | 0.05 µg/mL | 0.39 µg/mL | 0.39 µg/mL | 24200 ng/mL | 26800 ng/mL | 34300 ng/mL |
| < 0.025 µg/mL | 0.05 µg/mL | 0.2 µg/mL | 0.2 µg/mL | – | – | – | – | CN(C)C(=O)/C=C\SC1=C(C(=O)[O-])N2C(=O)[C@@H](NC(=O)/C(=N\OCC(=O)O)c3csc(N)n3)[C@H]2SC1.[Na+] [A, 7β-{α-(2-aminothiazole-4-yl)-α-[(Z)-carboxymethoxyimino]acetamido}-3-[(Z)-2-N,N-dimethylaminocarbonylvinylthio]-3-cephem-4-carboxylic acid sodium salt] | – | – | – | – | – | – | – |
| – | – | – | – | 0.025 µg/mL (≈ 0.0461 µM) | 0.05 µg/mL (≈ 0.0922 µM) | 0.2 µg/mL (≈ 0.369 µM) | 0.39 µg/mL (≈ 0.719 µM) | CNC(=O)/C=C\SC1=C(C(=O)O)N2C(=O)[C@@H](NC(=O)/C(=N\OCC(=O)O)c3csc(N)n3)[C@H]2SC1 [C] | – | – | – | – | 22400 ng/mL | 20800 ng/mL | 26600 ng/mL |
| – | – | – | – | – | – | – | – | CC1=C(C(=O)O)N2C(=O)[C@@H](NC(=O)[C@H](N)c3ccccc3)[C@H]2SC1 [YY, Cefalexin, reference compound] | 12.5 µg/mL (≈ 36 µM) | 6.25 µg/mL (≈ 18 µM) | 12.5 µg/mL (≈ 36 µM) | > 100 µg/mL | – | – | – |
